Test systems include SF-539 CNS; KM20L2 colon; SNB-78 CNS; XF 498 CNS; CAKI-1 renal; DMS 273 small cell lung; COLO 205 colon; DLD-1 colon; LXFL 529 NSCLC; NCI-H522 lung; M19-MEL melanoma; MOLT-4 leukemia; HT29 colon.
Experiment in all cases: NCI anticancer screen, dose series, 48 h

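Step 1: Grow cells in 96-well plates. Step 2: Expose to compound for 48 hours at 5 concentrations. Step 3: Interpolate endpoints linearly; if unreached, use highest concentration. The concentration for full growth arrest is given as TGI.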

As for `CCCc1c(C(=O)OCC)[nH]c(-c2ccc(-c3[nH]c(C(=O)OCC)c(CCC)c3C(=O)OCC)s2)c1C(=O)OCC`, the TGI in the assay with SF-539 CNS, with KM20L2 colon, with SNB-78 CNS, in the assay with XF 498 CNS, in the assay on CAKI-1 renal and with DMS 273 small cell lung was more than 100 µM in each case. Moreover, the TGI in the assay with COLO 205 colon, in the assay with DLD-1 colon, in the assay on LXFL 529 NSCLC, in the assay on NCI-H522 lung, with M19-MEL melanoma and in the assay on MOLT-4 leukemia was more than 100 µM each time. The TGI in the assay on HT29 colon was more than 100 µM.

For the molecule `N#C/C(=C\c1cccc(O)c1O)C(N)=O`, the TGI in the assay on SF-539 CNS is more than 100 µM; with KM20L2 colon, more than 100 µM; in the assay with SNB-78 CNS, more than 100 µM; in the assay on XF 498 CNS it was 95.6 µM; with CAKI-1 renal it was more than 100 µM; in the assay with DMS 273 small cell lung, more than 100 µM. For the same molecule, the TGI is 77.7 µM in the assay with COLO 205 colon; more than 100 µM in the assay on DLD-1 colon; more than 100 µM with LXFL 529 NSCLC; 58.4 µM in the assay on NCI-H522 lung; more than 100 µM in the assay with M19-MEL melanoma; more than 100 µM in the assay with MOLT-4 leukemia. In the assay on HT29 colon, this molecule returned a TGI of more than 100 µM.

Take `COc1cccc(/C(Cl)=C(\C=O)c2cccc(OC)c2)c1`: the TGI with SF-539 CNS is 37.1 µM; in the assay on KM20L2 colon, 47.8 µM; in the assay with SNB-78 CNS, 30 µM; in the assay on XF 498 CNS, 27.1 µM; in the assay with CAKI-1 renal, 70 µM; in the assay with DMS 273 small cell lung it was 28.5 µM. The TGI with COLO 205 colon amounted to 24.2 µM; in the assay with DLD-1 colon, 29.1 µM; in the assay on LXFL 529 NSCLC, 20.9 µM; with NCI-H522 lung it was 11.4 µM; with M19-MEL melanoma it was 29 µM; in the assay with MOLT-4 leukemia, 78.3 µM. Moreover, in the assay with HT29 colon, the TGI was found to be 24.9 µM.

Take `COc1ccc2nc3c(c(NCCCN(C)C)c2c1)CCCC3`: the TGI in the assay with SF-539 CNS was determined as 30.8 µM; in the assay on KM20L2 colon, 22.4 µM; in the assay on SNB-78 CNS, 21.4 µM; with XF 498 CNS, 20.4 µM; in the assay with CAKI-1 renal it was 27.9 µM; with DMS 273 small cell lung it was 24.8 µM. Besides, the TGI in the assay on COLO 205 colon is 23 µM; in the assay on DLD-1 colon, 28.4 µM; with LXFL 529 NSCLC, 28.7 µM; with NCI-H522 lung, 31.3 µM; in the assay with M19-MEL melanoma it was 31 µM; in the assay with MOLT-4 leukemia, 14.2 µM. The molecule also showed a TGI in the assay on HT29 colon of 27.6 µM.

On to `COc1cc(C2C(Cl)C(=O)N2NC(=O)c2ccc(NC(C)=O)cc2)ccc1O` (stereo not given), for which the TGI in the assay with SF-539 CNS, with KM20L2 colon, with SNB-78 CNS, in the assay on XF 498 CNS, in the assay with CAKI-1 renal and in the assay with DMS 273 small cell lung was more than 100 µM throughout. Further, the TGI in the assay with COLO 205 colon, in the assay with DLD-1 colon, in the assay with LXFL 529 NSCLC, in the assay with NCI-H522 lung, in the assay with M19-MEL melanoma and in the assay with MOLT-4 leukemia was more than 100 µM throughout. This molecule yielded a TGI in the assay on HT29 colon of more than 100 µM.

The values are drawn from PubChem BioAssay (NCI).
